The subject of this assay is HepaRG. Description: LDH release cytotoxicity, % of total lysis control; higher = more cytotoxic. The conditions noted are these: 48 h. Summed up:
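The CytoTox-ONE kit was used to read LDH in 50 µL spent medium as resorufin fluorescence on a Tecan Safire, with 0.1% Triton X added to total lysis wells. Beforehand, single-lot HepaRG cells on collagen I-coated 96-well plates had been exposed in duplicate for 48 h to eight-point half-log series (top 100 µM) in serum-free induction medium containing 0.5% DMSO. Percent cytotoxicity was normalized against on-plate vehicle and total lysis controls and averaged over duplicates.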

Consider 18 compounds from the supplement of paper PMC7840683.

Structures can show the parent of a compound that is named as a salt. ± gives the standard deviation of the averaged measurements.

For `O=C(O)c1cc(Oc2ccc(C(F)(F)F)cc2Cl)ccc1[N+](=O)[O-]` [5-(2-Chloro-4-(trifluoromethyl)phenoxy)-2-nitrobenzoic acid], the LDH release cytotoxicity by setting is: (0.03162 µM) -0.08 ± 0.59%; (0.1 µM) -1.4 ± 0.2%; (0.3162278 µM) -0.769 ± 0.18%; (1 µM) -1.39 ± 0.35%; (3.16228 µM) -0.738 ± 0.35%; (10 µM) -0.0876 ± 0.044%. For the same compound, the LDH release cytotoxicity (31.6228 µM) was 0.334 ± 0.06% and the LDH release cytotoxicity (100 µM) is 2.95 ± 0.47%.

In the case of `OCCCBr` [3-Bromo-1-propanol], the LDH release cytotoxicity (0.03162 µM) was 0.25 ± 1.2%; the LDH release cytotoxicity (0.1 µM) was -0.845 ± 0.1%; the LDH release cytotoxicity (0.3162278 µM) was -1.144 ± 0.0048%; the LDH release cytotoxicity (1 µM) was -0.314 ± 0.33%; the LDH release cytotoxicity (3.16228 µM) was -0.692 ± 0.86%; the LDH release cytotoxicity (10 µM) was -0.0559 ± 0.79%. The LDH release cytotoxicity is -0.26 ± 0.065% (31.6228 µM) and 9.22 ± 1.3% (100 µM).

`CCCCCCCCCCCCc1ccccc1` [Dodecylbenzene]: the LDH release cytotoxicity is, setting by setting: (0.03162 µM) -2.1 ± 0.14%; (0.1 µM) -1.71 ± 0.15%; (0.3162278 µM) -1.86 ± 0.75%; (1 µM) -2.59 ± 0.8%; (3.16228 µM) -2.08 ± 0.19%; (10 µM) -0.672 ± 0.39%. The LDH release cytotoxicity by setting is: (31.6228 µM) -1.17 ± 0.31%; (100 µM) 1.25 ± 1.2%.

Turning to `Oc1ccc2c(c1)-c1ccccc1C2` [3-Hydroxyfluorene], the LDH release cytotoxicity (0.03162 µM) is -1.48 ± 0.74%; the LDH release cytotoxicity (0.1 µM) is -1.06 ± 0.48%; the LDH release cytotoxicity (0.3162278 µM) is -0.414 ± 0.17%; the LDH release cytotoxicity (1 µM) is -1.04 ± 0.052%; the LDH release cytotoxicity (3.16228 µM) is -0.932 ± 0.52%; the LDH release cytotoxicity (10 µM) is -0.0118 ± 0.39%. The LDH release cytotoxicity runs as follows: (31.6228 µM) 0.438 ± 0.78%; (100 µM) 3.69 ± 1.1%.

For `CCCCOCCO` [2-Butoxyethanol], the LDH release cytotoxicity is, setting by setting: (0.03162 µM) -2.12 ± 0.86%; (0.1 µM) -0.886 ± 1%; (0.3162278 µM) -1.1 ± 1.1%; (1 µM) -2.21 ± 0.073%; (3.16228 µM) -1.06 ± 0.48%; (10 µM) -0.332 ± 0.52%. The LDH release cytotoxicity (31.6228 µM) was -0.824 ± 0.64% and the LDH release cytotoxicity (100 µM) is 1.02 ± 0.18%.

As for `Cc1ccc(N=C=O)cc1N=C=O` [Toluene 2,4-diisocyanate], the LDH release cytotoxicity is -1.18 ± 0.59% (0.03162 µM); -1.26 ± 0.15% (0.1 µM); -1.96 ± 0.45% (0.3162278 µM); -1.55 ± 0.2% (1 µM); -1.52 ± 0.076% (3.16228 µM); -0.759 ± 0.27% (10 µM). Moreover, the LDH release cytotoxicity is 4.408 ± 0.042% (31.6228 µM) and 11.5 ± 1.5% (100 µM).

With `CC(C)(C)OOC(=O)c1ccccc1` [tert-Butyl perbenzoate], the LDH release cytotoxicity is, setting by setting: (0.03162 µM) -1.33 ± 0.72%; (0.1 µM) -1.77 ± 0.33%; (0.3162278 µM) -1.063 ± 0.0015%; (1 µM) -2.35 ± 0.69%; (3.16228 µM) -1.04 ± 1.1%; (10 µM) -1.63 ± 0.41%. In addition, the LDH release cytotoxicity reads like this: (31.6228 µM) -0.865 ± 0.23%; (100 µM) 0.38 ± 0.12%.

In the case of `CCOP(=S)(OCC)OC(Cl)C(Cl)(Cl)Cl` (centres undefined) [Chlorethoxyfos], the LDH release cytotoxicity is, setting by setting: (0.03162 µM) -1.98 ± 0.044%; (0.1 µM) -1.72 ± 0.32%; (0.3162278 µM) -0.757 ± 0.55%; (1 µM) -2.38 ± 0.29%; (3.16228 µM) -1.72 ± 0.38%; (10 µM) -0.842 ± 0.087%. In addition, the LDH release cytotoxicity is -1.18 ± 0.36% (31.6228 µM) and -1.1 ± 0.44% (100 µM).

`CN(C)C1C(=O)C(C(N)=O)C(=O)C2(O)C(=O)C3C(=O)c4c(O)cccc4C(C)(O)C3C(O)C12` (centres undefined) [Oxytetracycline hydrochloride]: the LDH release cytotoxicity reads like this: (0.03162 µM) -0.636 ± 0.43%; (0.1 µM) -0.707 ± 0.15%; (0.3162278 µM) -1.81 ± 0.59%; (1 µM) -1.93 ± 0.75%; (3.16228 µM) -1.93 ± 0.7%; (10 µM) -1.21 ± 0.36%. For the same compound, the LDH release cytotoxicity (31.6228 µM) was -1.75 ± 1.1% and the LDH release cytotoxicity (100 µM) is -1.47 ± 0.43%.

Consider `CCCCCCCCCCCC(=O)OC` [Methyl dodecanoate], for which the LDH release cytotoxicity is 0.879 ± 1.4% (0.03162 µM); -1.07 ± 0.59% (0.1 µM); -1.35 ± 0.79% (0.3162278 µM); -1.18 ± 0.72% (1 µM); -0.971 ± 0.58% (3.16228 µM); -0.971 ± 1.3% (10 µM). The LDH release cytotoxicity (31.6228 µM) is -1.41 ± 0.49% and the LDH release cytotoxicity (100 µM) stood at 0.025 ± 0.27%.

As for `O=[N+]([O-])c1ccccc1` [Nitrobenzene], the LDH release cytotoxicity (0.03162 µM) is -0.035 ± 0.65%; the LDH release cytotoxicity (0.1 µM) is -0.746 ± 0.34%; the LDH release cytotoxicity (0.3162278 µM) was -0.739 ± 0.36%; the LDH release cytotoxicity (1 µM) is -0.928 ± 0.55%; the LDH release cytotoxicity (3.16228 µM) was -1.24 ± 0.27%; the LDH release cytotoxicity (10 µM) was -0.372 ± 0.35%. Also, the LDH release cytotoxicity reads like this: (31.6228 µM) -0.298 ± 1.3%; (100 µM) 1.13 ± 0.81%.

With `COC(=O)Nc1nc2ccccc2[nH]1` [Carbendazim], the LDH release cytotoxicity was -1.09 ± 0.92% (0.03162 µM); -0.973 ± 1.7% (0.1 µM); -1.51 ± 0.71% (0.3162278 µM); -1.78 ± 0.15% (1 µM); -1.63 ± 0.052% (3.16228 µM); 7.25 ± 0.6% (10 µM). For the same compound, the LDH release cytotoxicity runs as follows: (31.6228 µM) 7.37 ± 0.77%; (100 µM) 8.69 ± 0.71%.

`O=C(NC(c1ccccc1)C1CCCCN1)c1cccc(C(F)(F)F)c1Cl` (centres undefined): the LDH release cytotoxicity by setting is: (0.03162 µM) -1.29 ± 1.3%; (0.1 µM) -1.57 ± 0.071%; (0.3162278 µM) -0.0611 ± 0.068%; (1 µM) -1.79 ± 0.54%; (3.16228 µM) -0.61 ± 1.2%; (10 µM) 0.734 ± 0.85%. Besides, the LDH release cytotoxicity came to 24.2 ± 1.3% (31.6228 µM) and 86.2 ± 3.2% (100 µM).

As for `CCC1(c2ccccc2)C(=O)N=C(O)NC1=O` (centres undefined) [Phenobarbital sodium], the LDH release cytotoxicity (0.03162 µM) was -1.03 ± 0.11%; the LDH release cytotoxicity (0.1 µM) was -0.9 ± 0.78%; the LDH release cytotoxicity (0.3162278 µM) was -1.41 ± 0.58%; the LDH release cytotoxicity (1 µM) was -0.43 ± 0.71%; the LDH release cytotoxicity (3.16228 µM) was -0.289 ± 0.44%; the LDH release cytotoxicity (10 µM) was -0.0423 ± 0.88%. Moreover, the LDH release cytotoxicity (31.6228 µM) came out at 0.694 ± 0.48% and the LDH release cytotoxicity (100 µM) was 1.83 ± 0.84%.

Take `CC(=O)C1CCC2C3CCC4=CC(=O)CCC4(C)C3CCC12C` (centres undefined) [Progesterone]: the LDH release cytotoxicity reads like this: (0.03162 µM) 0.112 ± 0.97%; (0.1 µM) -0.0962 ± 0.055%; (0.3162278 µM) -0.597 ± 1.8%; (1 µM) -0.509 ± 0.91%; (3.16228 µM) -1.13 ± 0.52%; (10 µM) -2 ± 0.72%. Besides, the LDH release cytotoxicity was 12.6 ± 0.78% (31.6228 µM) and 55.9 ± 1.6% (100 µM).

In the case of `CC(C)(C)c1ccc(O)c(C(C)(C)C)c1` [2,4-Di-tert-butylphenol], the LDH release cytotoxicity reads like this: (0.03162 µM) -2.05 ± 0.42%; (0.1 µM) -1.71 ± 0.24%; (0.3162278 µM) -1.9 ± 1.1%; (1 µM) -2.07 ± 0.9%; (3.16228 µM) -1.83 ± 0.043%; (10 µM) -1.53 ± 0.18%. The LDH release cytotoxicity is -0.783 ± 0.87% (31.6228 µM) and 0.8 ± 0.4% (100 µM).

Turning to `Oc1c(Cl)c(Cl)c(Cl)c(Cl)c1Cl` [Pentachlorophenol], the LDH release cytotoxicity runs as follows: (0.0161276 µM) -0.227 ± 0.28%; (0.051 µM) -1.03 ± 0.34%; (0.161276 µM) -1.01 ± 0.69%; (0.51 µM) -0.425 ± 0.32%; (1.6127616 µM) 1.21 ± 0.41%; (5.1 µM) 9 ± 4.7%. Besides, the LDH release cytotoxicity by setting is: (16.127616 µM) 41.1 ± 1.3%; (51 µM) 40.65 ± 0.23%.

Consider `CCOC(=O)CC(SP(=S)(OC)OC)C(=O)OCC` (centres undefined) [Malathion], for which the LDH release cytotoxicity is 0.138 ± 0.34% (0.03162 µM); -0.944 ± 0.55% (0.1 µM); -0.165 ± 0.55% (0.3162278 µM); -0.829 ± 0.26% (1 µM); -0.0242 ± 0.075% (3.16228 µM); -0.216 ± 0.19% (10 µM). Besides, the LDH release cytotoxicity runs as follows: (31.6228 µM) -0.432 ± 0.52%; (100 µM) 0.626 ± 0.78%.
